Earlier results in patent US20120053222A1, “Novel Metabolic Disease Therapy” (priority 2009, published 2012).

Test system: ob/ob mice
Details: injection

With exendin 4 as the substance, how does the liver steatosis read?
Its liver steatosis is “diminishes liver steatosis”.
